SMILES strings stand for the structures.

The target in one experiment is T1, human Edg-1 receptor (Homo sapiens, UniProt P21453).
T1 construct: expressed in transfected cells; membrane preparation
T1 sequence (P21453 whole entry): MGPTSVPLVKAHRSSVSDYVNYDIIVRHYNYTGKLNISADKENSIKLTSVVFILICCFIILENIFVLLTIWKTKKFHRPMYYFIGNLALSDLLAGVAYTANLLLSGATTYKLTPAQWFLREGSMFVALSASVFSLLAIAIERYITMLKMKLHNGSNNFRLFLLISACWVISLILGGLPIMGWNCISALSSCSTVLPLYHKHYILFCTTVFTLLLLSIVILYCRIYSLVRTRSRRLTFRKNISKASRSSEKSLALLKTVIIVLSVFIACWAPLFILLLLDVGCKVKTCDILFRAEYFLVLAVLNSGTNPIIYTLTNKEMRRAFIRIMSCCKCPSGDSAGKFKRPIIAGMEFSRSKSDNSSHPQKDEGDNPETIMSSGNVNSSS
Briefly: GTP-γ-S assay using human Edg-1 receptors (scintillation proximity assay, membrane preparation from CHO Flp-In cell line). It is filed as biochemical. Particulars: example compound at 10 μM; relative to 10 μM S1P; GTP-γ-S SPA, human Edg-1 membranes. In a few lines: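 Scintillation proximity GTP-γ-S binding assay measuring receptor activation. Membranes prepared from a CHO Flp-In line stably overexpressing N-terminally FLAG-tagged human Edg-1.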
(In general: Scintillation proximity formats need no separation of bound from free tracer.)
In the case of `CCOc1nc(Cc2ccc(Cl)cc2)nc2oc(-c3cc(C)c(OCC(O)CNC(C)=O)c(C)c3)nc12` (centres unmarked) [Example 208], the “% Activation (Edg-1 receptor activation in percent of the activation by 10 μM S1P)” value is 111%.
For the molecule `CCCOc1nc(Cc2ccc(Cl)cc2)nc2oc(-c3cc(C)c(OCC(O)CNCc4ccccc4)c(C)c3)nc12` (centres unmarked) [Example 209], the “% Activation (Edg-1 receptor activation in percent of the activation by 10 μM S1P)” value is 110%.
As for `CCCOc1nc(Cc2ccc(Cl)cc2)nc2oc(-c3ccc(OCC(O)CNCc4ccccc4)c(Cl)c3)nc12` (centres unmarked) [Example 210], the “% Activation (Edg-1 receptor activation in percent of the activation by 10 μM S1P)” value stood at 94%.
Take `CCCOc1nc(Cc2ccc(Cl)cc2)nc2oc(-c3ccc(OCC(O)CNC4CCCCC4)c(Cl)c3)nc12` (centres unmarked) [Example 211]: the “% Activation (Edg-1 receptor activation in percent of the activation by 10 μM S1P)” value is 112%.
On to `CCCOc1nc(Cc2ccc(Cl)cc2)nc2oc(-c3cc(C)c(OCC(O)CNC(=O)CO)c(C)c3)nc12` (centres unmarked) [Example 212], for which the “% Activation (Edg-1 receptor activation in percent of the activation by 10 μM S1P)” value worked out at 78%.
Turning to `CCCOc1nc(Cc2ccccc2)nc2oc(-c3cccc(OCCO)c3)nc12` [Example 213], the “% Activation (Edg-1 receptor activation in percent of the activation by 10 μM S1P)” value was 101%.
As to `CCCOc1nc(Cc2ccc(Cl)cc2)nc2oc(-c3cc(C)c(OCC(O)CNC(C)=O)c(C)c3)nc12` (centres unmarked) [Example 214], the “% Activation (Edg-1 receptor activation in percent of the activation by 10 μM S1P)” value amounted to 106%.
Regarding `CCCOc1nc(Cc2ccccc2)nc2oc(-c3cccc(O)c3)nc12` [Example 215], the “% Activation (Edg-1 receptor activation in percent of the activation by 10 μM S1P)” value came to 96%.
The same measure, in the same setting: as for `CCCC(=O)NCC(O)COc1c(C)cc(-c2nc3c(OCC)nc(Cc4ccc(Cl)cc4)nc3o2)cc1C` (centres unmarked) [Example 216], the figure is 105%; as for `CCOc1nc(Cc2ccc(Cl)cc2)nc2oc(-c3cc(C)c(OCC(O)CNC(=O)CC(C)C)c(C)c3)nc12` (centres unmarked) [Example 217], 78%.
On to `CCCOc1nc(Cc2ccc(Cl)cc2)nc2oc(-c3ccc(OC)c(Cl)c3)nc12` [Example 218], for which the “% Activation (Edg-1 receptor activation in percent of the activation by 10 μM S1P)” value amounted to 42%.
Regarding `CCCOc1nc(Cc2ccc(Cl)cc2)nc2oc(-c3ccc(OCC(=O)O)c(Cl)c3)nc12` [Example 219], the “% Activation (Edg-1 receptor activation in percent of the activation by 10 μM S1P)” value amounted to 107%.
For the molecule `CCCOc1nc(Cc2ccc(Cl)cc2)nc2oc(-c3cc(C)c(OCC(O)CNC(=O)CC(C)C)c(C)c3)nc12` (centres unmarked) [Example 220], the “% Activation (Edg-1 receptor activation in percent of the activation by 10 μM S1P)” value came out at 69%.
On to `CCOc1nc(Cc2ccc(Cl)cc2)nc2oc(-c3cc(C)c(OCC(O)CNCC(c4cccnc4)N(C)C)c(C)c3)nc12` (centres unmarked) [Example 221], for which the “% Activation (Edg-1 receptor activation in percent of the activation by 10 μM S1P)” value amounted to 84%.
The same measure, in the same setting: then `CCCOc1nc(Cc2ccc(Cl)cc2)nc2oc(-c3cc(C)c(OCCCNCCS(N)(=O)=O)c(C)c3)nc12` [Example 223], with 92%; and `CCCOc1nc(Cc2ccc(Cl)cc2)nc2oc(-c3cc(C)c(OCCCNCCC(=O)O)c(C)c3)nc12` [Example 224], with 113%.
Still for that read-out and setting: then `CCCOc1nc(Cc2ccc(Cl)cc2)nc2oc(-c3cc(C)c(OCCCNCCO)c(C)c3)nc12` [Example 225], with 100%; and `CCOc1nc(Cc2ccc(Cl)cc2)nc2oc(-c3cc(C)c(OCC(=O)N[C@@H](CO)C(=O)O)c(C)c3)nc12` [Example 226], with 98%; and `CCCOc1nc(Cc2ccc(Cl)cc2)nc2oc(-c3cc(C)c(OCCCNCc4nnn[nH]4)c(C)c3)nc12` [Example 227], with 142%.
For the molecule `CCOc1nc(Cc2ccc(Cl)cc2)nc2oc(-c3cc(C)c(OCC(=O)N4CC(C(=O)O)C4)c(C)c3)nc12` [Example 228], the “% Activation (Edg-1 receptor activation in percent of the activation by 10 μM S1P)” value was 107%.
As for `CCCOc1nc(Cc2ccc(Cl)cc2)nc2oc(-c3cc(C)c(OCCCN[C@@H](CCSC)C(=O)OC)c(C)c3)nc12` [Example 229], the “% Activation (Edg-1 receptor activation in percent of the activation by 10 μM S1P)” value was found to be 70%.
In the case of `CCCOc1nc(Cc2ccc(Cl)cc2)nc2oc(-c3cc(C)c(OCCCNCCC(=O)OC(C)(C)C)c(C)c3)nc12` [Example 230], the “% Activation (Edg-1 receptor activation in percent of the activation by 10 μM S1P)” value stood at 101%.
`CCCOc1nc(Cc2ccc(Cl)cc2)nc2oc(-c3cc(C)c(OCC(=O)N4CC[C@H](O)C4)c(C)c3)nc12` [Example 231]: the “% Activation (Edg-1 receptor activation in percent of the activation by 10 μM S1P)” value is 104%.
On to `CCCOc1nc(Cc2ccc(Cl)cc2)nc2oc(-c3cc(C)c(OCC(=O)N4CC[C@@H](O)C4)c(C)c3)nc12` [Example 232], for which the “% Activation (Edg-1 receptor activation in percent of the activation by 10 μM S1P)” value came out at 125%.
Same read-out and setting: then `CCCOc1nc(Cc2ccc(Cl)cc2)nc2oc(-c3cc(C)c(OCC(=O)OCC)c(C)c3)nc12` [Example 233], with 79%.
For the molecule `CCOc1nc(Cc2ccc(Cl)cc2)nc2oc(-c3cc(C)c(OCC(=O)NCCN4CCOCC4)c(C)c3)nc12` [Example 234], the “% Activation (Edg-1 receptor activation in percent of the activation by 10 μM S1P)” value stood at 106%.
For the molecule `CCCOc1nc(Cc2ccc(Cl)cc2)nc2oc(-c3cc(C)c(OCCc4c(C)noc4C)c(C)c3)nc12` [Example 235], the “% Activation (Edg-1 receptor activation in percent of the activation by 10 μM S1P)” value came out at 59%.
Same read-out and setting: as for `CCOc1nc(Cc2ccc(Cl)cc2)nc2oc(-c3cc(C)c(OCC(O)CN4CCOCC4)c(C)c3)nc12` (centres unmarked) [Example 236], the figure is 102%; as for `CCCOc1nc(Cc2ccc(Cl)cc2)nc2oc(-c3cc(C)c(OCC(O)CNCCC(=O)O)c(C)c3)nc12` (centres unmarked) [Example 237], 115%.
Take `CCOc1nc(Cc2ccc(Cl)cc2)nc2oc(-c3cc(C)c(OCC(O)CN(CC)CC)c(C)c3)nc12` (centres unmarked) [Example 238]: the “% Activation (Edg-1 receptor activation in percent of the activation by 10 μM S1P)” value turned out to be 71%.
Turning to `CCOc1nc(Cc2ccc(Cl)cc2)nc2oc(-c3cc(C)c(OCC(=O)N4CCC(C(=O)O)C4)c(C)c3)nc12` (centres unmarked) [Example 239], the “% Activation (Edg-1 receptor activation in percent of the activation by 10 μM S1P)” value is listed as 86%.
Regarding `CCCOc1nc(Cc2ccc(Cl)cc2)nc2oc(-c3cc(C)c(OCC(=O)NCCC(=O)O)c(C)c3)nc12` [Example 241], the “% Activation (Edg-1 receptor activation in percent of the activation by 10 μM S1P)” value is listed as 128%.
Take `CCCOc1nc(Cc2ccc(Cl)cc2)nc2oc(-c3cc(C)c(OCC(=O)N4CC(C(=O)O)C4)c(C)c3)nc12` [Example 242]: the “% Activation (Edg-1 receptor activation in percent of the activation by 10 μM S1P)” value is on record as 106%.
Same read-out and setting: as for `CCCOc1nc(Cc2ccc(Cl)cc2)nc2oc(-c3cc(C)c(OCC(=O)N4CCC(C(=O)O)C4)c(C)c3)nc12` (centres unmarked) [Example 243], the figure is 106%; as for `CCCOc1nc(Cc2ccc(Cl)cc2)nc2oc(-c3cc(C)c(OCC(=O)NCCO)c(C)c3)nc12` [Example 244], 97%.
On the same count and under the same terms, then `CCCOc1nc(Cc2ccc(Cl)cc2)nc2oc(-c3cc(C)c(OCC(=O)N4CCC[C@H]4C(=O)O)c(C)c3)nc12` [Example 245], with 144%; and `CCOc1nc(Cc2ccc(Cl)cc2)nc2oc(-c3cc(C)c(OCC(=O)N4CC(C(=O)OC)C4)c(C)c3)nc12` [Example 246], with 111%.
Consider `CCCOc1nc(Cc2ccc(Cl)cc2)nc2oc(-c3cc(C)c(OCC(=O)OCC(=O)O)c(C)c3)nc12` [Example 247], for which the “% Activation (Edg-1 receptor activation in percent of the activation by 10 μM S1P)” value worked out at 110%.
As for `CCCOc1nc(Cc2ccc(Cl)cc2)nc2oc(-c3cc(C)c(OCC(=O)OC)c(C)c3)nc12` [Example 248], the “% Activation (Edg-1 receptor activation in percent of the activation by 10 μM S1P)” value worked out at 89%.
In the case of `CCOc1nc(Cc2ccc(Cl)cc2)nc2oc(-c3cc(C)c(OCC(=O)NCCN(C)C)c(C)c3)nc12` [Example 249], the “% Activation (Edg-1 receptor activation in percent of the activation by 10 μM S1P)” value stood at 104%.
The same measure, in the same setting: then `CCOc1nc(Cc2ccc(Cl)cc2)nc2oc(-c3cc(C)c(OCC(=O)NCC(=O)OC(C)(C)C)c(C)c3)nc12` [Example 250], with 72%; and `CCCOc1nc(Cc2ccc(Cl)cc2)nc2oc(-c3cc(C)c(OCCCC(=O)O)c(C)c3)nc12` [Example 251], with 112%.
Consider `CCCOc1nc(Cc2ccc(Cl)cc2)nc2oc(-c3cc(C)c(OCC(=O)NCc4ccco4)c(C)c3)nc12` [Example 252], for which the “% Activation (Edg-1 receptor activation in percent of the activation by 10 μM S1P)” value came out at 102%.
The same measure, in the same setting: then `CCOc1nc(Cc2ccc(Cl)cc2)nc2oc(-c3cc(C)c(OCC(=O)O)c(C)c3)nc12` [Example 253], with 79%; and `CCCOc1nc(Cc2ccc(Cl)cc2)nc2oc(-c3cc(C)c(OCC(=O)NCC4CC4)c(C)c3)nc12` [Example 254], with 86%.
Consider `CCOc1nc(Cc2ccc(Cl)cc2)nc2oc(-c3cc(C)c(OCC(=O)NCCC(=O)OC(C)(C)C)c(C)c3)nc12` [Example 255], for which the “% Activation (Edg-1 receptor activation in percent of the activation by 10 μM S1P)” value turned out to be 74%.
Regarding `CCCOc1nc(Cc2ccc(Cl)cc2)nc2oc(-c3cc(C)c(OCC(=O)NCC(=O)OC(C)(C)C)c(C)c3)nc12` [Example 256], the “% Activation (Edg-1 receptor activation in percent of the activation by 10 μM S1P)” value came out at 69%.
For the molecule `CCOc1nc(Cc2ccc(Cl)cc2)nc2oc(-c3cc(C)c(OCC(O)CNCc4ccccc4)c(C)c3)nc12` (centres unmarked) [Example 257], the “% Activation (Edg-1 receptor activation in percent of the activation by 10 μM S1P)” value is 122%.
Turning to `CCOc1nc(Cc2ccc(Cl)cc2)nc2oc(-c3cc(C)c(OCC(O)CNC(=O)CO)c(C)c3)nc12` (centres unmarked) [Example 258], the “% Activation (Edg-1 receptor activation in percent of the activation by 10 μM S1P)” value worked out at 97%.

The same experiment, now with this note: example compound at 10 μM; relative to 10 μM S1P; GTP-γ-S SPA, human Edg-1 membranes; read-out: % Activation (Edg-1 receptor activation in percent of the activation by 10 μM S1P).
On to `CCOc1nc(Cc2ccc(Cl)cc2)nc2oc(-c3cc(C)c(OCC(=O)NCC(=O)O)c(C)c3)nc12` [Example 240, (2-{4-[5-(4-chloro-benzyl)-7-ethoxy-oxazolo[5,4-d]pyrimidin-2-yl]-2,6-dimethyl-phenoxy}-acetylamino)-acetic acid], for which the activation at 10 µM was 123%.
